Key:
USA300 LAC [1] = experiment: Checkerboard MIC assay with oxacillin; type: cell-based, Staphylococcus aureus; settings: for FICI / Sensitization fold / Minimum sensitization concentration: USA300 LAC/oxacillin; for Minimum sensitization concentration: test range 0.03–32 μg/mL
Method: (§1) In the checkerboard assay, concentrations of antibiotics, oxacillin and imipenem, and TarO inhibitors were simultaneously varied across columns and the rows, respectively. […] The range of each compound chosen for the checkerboard assay was according to their MIC value. […] For each clear well observed on the checkerboard MIC plate, the fractional inhibitory concentration index (FICI) was calculated as follows: FICI = FIC (inhibitor) + FIC (antibiotic) = MIC inhibitor in combination/ MIC inhibitor alone + MIC antibiotic in combination/MIC antibiotic alone. FIC = Fractional Inhibitory Concentration. A FICI value of < 0.5 indicates synergy, a value between 0.5 and 2 indicates additivity or indifference, and a value > 2 indicates antagonism.

TarO = TarO (Staphylococcus aureus, UniProt Q2G060); type: cell-based; settings: for IC50: relative inhibition rate against the wild-type strain, OD600 at 20 h, n.a. = IC50 cannot be calculated within the test range; for TarO inhibitory activity (in words): SAR discussion
[2] = system: S.aureus USA300 LAC biofilm; experiment: Static biofilm inhibition assay (crystal violet); type: cell-based, Staphylococcus aureus; settings: USA300 LAC, 24 h static culture
HS663 [3] = experiment: MIC determination, broth microdilution; settings: Staphylococcus aureus
[4] = Preliminary liver microsomal stability testing; type: in vitro ADME, Mouse
Method: 6. Supplementary Ta b l e 3: Preliminary liver microsomal stability testing of Ta r O
Compounds Species T1/2 Clint In Vitro MF […]
a MF: metabolic bioavailability.
Microsomes in 0.1 M TRIS buffer pH 7.4 (final concentration 0.33 mg/mL), co- factor MgCl2 (final concentration 5 mM) and tested compound (final concentration 0.1 μM, co-solvent 0.01% DMSO and 0.005% Bovin serum albumin BSA) were incubated at 37°C for 10 min. The reaction was started by the addition of NADPH (final concentration 1 mM). Aliquots were sampled at 0, 5, 15, 30 and 60 min respectively and methanol (cold in wet ice) was added to terminate the reaction.
After centrifugation (4000rpm,5 min), samples were then analyzed by LC- MS/MS.

USA400 MW2 [5] = experiment: MIC determination, broth microdilution; settings: Staphylococcus aureus
USA400 MW2 [6] = experiment: Checkerboard MIC assay with oxacillin; type: cell-based, Staphylococcus aureus
Method: as §1

USA300 LAC [7] = experiment: MIC determination, broth microdilution; settings: Staphylococcus aureus
HS663 [8] = experiment: Checkerboard MIC assay with imipenem; type: cell-based, Staphylococcus aureus
Method: as §1

[9] = Cytotoxicity assay (Sulforhodamine B); type: cell-based; settings: human
Method: The cytotoxicity was detected by Sulforhodamine B method. The human pancreatic cancer cell line Capan-1, human colon cancer cell line HCT-116 and human lung adenocarcinoma cell line NCI-H1373 were purchased from American Type Culture Collection (ATCC; Manassas, VA) and inoculated into 96-well plates in triplicate. The cells were treated with different concentrations of compounds in humidified incubator containing 5% CO2 for 72 h when they reached 70%-80% confluence. Vincristine was added as a positive control. Then, SRB staining agent was added and microplate analyzer was used to read the absorbance at 450 nm wavelength. The cytotoxicity of each compound is expressed as the concentration of the compound that reduces cell viability to 50% (IC50). The optical density (OD) at a wavelength of 450 nm was measured using an SpectraMax 190 Microplate Reader (Molecular Devices; USA). The IC50 value was calculated by the Logit method using Graphpad Prism 9.1.

[10] = at maximum sensitization concentration
[11] = at minimum sensitization concentration
[12] = USA400 MW2/oxacillin, at maximum sensitization concentration
[13] = USA400 MW2/oxacillin, test range 0.03–32 μg/mL
[14] = HS663/imipenem, at maximum sensitization concentration
[15] = HS663/imipenem, at minimum sensitization concentration
[16] = HS663/imipenem, test range 0.03–32 μg/mL

C[C@H]1[C@@H](c2cc(C(F)(F)F)cc(C(F)(F)F)c2)OC(=O)N1C(=O)CCn1ccc(=O)c2ccccc21 [Compound 17a]
FICI (USA300 LAC [1]; [10]): < 0.13 | Sensitization fold (USA300 LAC [1]; [10]): 1024 | FICI (USA300 LAC [1]; [11]): < 0.15 | Sensitization fold (USA300 LAC [1]; [11]): 8 | Minimum sensitization concentration (USA300 LAC [1]): 4 µg/mL | IC50 (TarO): 4.08 µM

C[C@H]1[C@@H](c2cc(C(F)(F)F)cc(C(F)(F)F)c2)OC(=O)N1C(=O)CCN1CCC(=O)c2ccccc21 [Compound 12]
IC50 (TarO): 5.05 µM

C[C@H]1[C@@H](c2cc(C(F)(F)F)cc(C(F)(F)F)c2)OC(=O)N1C(=S)NCc1cccc2ccccc12 [Compound 5]
FICI (USA300 LAC [1]; [10]): < 0.13 | Sensitization fold (USA300 LAC [1]; [10]): 8 | Sensitization fold (USA300 LAC [1]; [11]): 8 | Minimum sensitization concentration (USA300 LAC [1]): 0.25 µg/mL | IC50 (TarO): 8.98 µM

C[C@H]1[C@@H](c2cc(C(F)(F)F)cc(C(F)(F)F)c2)OC(=O)N1C(=O)SCc1cccc2ccccc12 [Compound 2]
FICI (USA300 LAC [1]; [10]): < 0.04 | Sensitization fold (USA300 LAC [1]; [10]): 32 | Sensitization fold (USA300 LAC [1]; [11]): 8 | Minimum sensitization concentration (USA300 LAC [1]): 0.06 µg/mL | TarO inhibitory activity (in words) (TarO): potent TarO inhibitory activity | IC50 (TarO): 0.0974 µM

COc1cc(C(F)(F)F)cc([C@H]2OC(=O)N(C(=O)CCn3ccc(=O)c4cccnc43)[C@H]2C)n1 [Compound 18b]
concentration (as low as) significantly reducing biofilm formation [2]: 8 µg/mL | MIC (HS663 [3]): > 256 µg/mL | Clint In Vitro ([4]; Mouse liver microsomes): 1267 mL/min/gprot | Comments (metabolic stability) ([4]; Mouse liver microsomes): poor | half-life at 0.1 μM ([4]; pH 7.4, Mouse liver microsomes 0.33 mg/mL, 0.1 μM compound): 1.66 min | MIC (USA400 MW2 [5]): > 256 µg/mL | FICI (USA300 LAC [1]; [10]): <0.19 | Sensitization fold (USA300 LAC [1]; [10]): 16 | FICI (USA300 LAC [1]; [11]): <0.26 | Sensitization fold (USA300 LAC [1]; [11]): 4 | Minimum sensitization concentration (USA300 LAC [1]): 0.25 µg/mL | FICI (USA400 MW2 [6]; [12]): <0.16 | Sensitization fold (USA400 MW2 [6]; [12]): 32 | Sensitization fold (USA400 MW2 [6]; USA400 MW2/oxacillin, at minimum sensitization concentration): 2 | Maximum sensitization concentration (USA400 MW2 [6]; [13]): 32 µg/mL | Minimum sensitization concentration (USA400 MW2 [6]; [13]): 0.06 µg/mL | MIC of β-lactam, combined (USA400 MW2 [6]; oxacillin with TarO inhibitor at maximum sensitization concentration, USA400 MW2): 0.5 µg/mL | MIC of β-lactam, combined (USA400 MW2 [6]; oxacillin with TarO inhibitor at minimum sensitization concentration, USA400 MW2): 8 µg/mL | MIC (USA300 LAC [7]): > 256 µg/mL | IC50 (TarO): 12.3 µM | FICI (HS663 [8]; [14]): <0.08 | Sensitization fold (HS663 [8]; [14]): 16 | FICI (HS663 [8]; [15]): <0.51 | Sensitization fold (HS663 [8]; [15]): 2 | Maximum sensitization concentration (HS663 [8]; [16]): 2 µg/mL | Minimum sensitization concentration (HS663 [8]; [16]): 0.12 µg/mL | MIC of β-lactam, combined (HS663 [8]; imipenem with TarO inhibitor at maximum sensitization concentration, HS663): 4 µg/mL | MIC of β-lactam, combined (HS663 [8]; imipenem with TarO inhibitor at minimum sensitization concentration, HS663): 32 µg/mL | IC50 at 72 h ([9]; Capan-1 cells (human pancreatic cancer cell line), Capan-1, 72 h): > 20 µM | IC50 at 72 h ([9]; HCT-116 cells (human colon cancer cell line), HCT-116, 72 h): > 20 µM | IC50 at 72 h ([9]; NCI-H1373 cells (human lung adenocarcinoma cell line), NCI-H1373, 72 h): > 20 µM

C[C@H]1[C@@H](c2cc(C(F)(F)F)cc(C(F)(F)F)c2)OC(=O)N1C(=O)OCc1cccc2ccccc12 [Compound 1]
FICI (USA300 LAC [1]; [10]): < 0.07 | Sensitization fold (USA300 LAC [1]; [10]): 16 | Sensitization fold (USA300 LAC [1]; [11]): 8 | Minimum sensitization concentration (USA300 LAC [1]): 0.06 µg/mL | IC50 (TarO): 0.161 µM

C[C@H]1[C@@H](c2cc(C(F)(F)F)cc(C(F)(F)F)c2)OC(=O)N1C(=O)CCN1CCS(=O)(=O)CC1 [Compound 19]
TarO inhibitory activity (in words) (TarO): lost its activity

C[C@@H](O)[C@H]1C(=O)N2C(C(=O)O)=C(SCCN=CN)C[C@H]12 [imipenem, reference compound]
MIC (HS663 [8]; Staphylococcus aureus, imipenem used alone, HS663, read-out: MIC of β-lactam, Individual): 64 µg/mL | MIC of β-lactam, Individual (HS663 [8]; imipenem used alone, HS663): 64 µg/mL

C[C@H]1[C@@H](c2cccc(C(F)(F)F)c2)OC(=O)N1C(=O)CCn1ccc(=O)c2ccccc21 [Compound 17d]
IC50 (TarO): 30.2 µM

C[C@H]1[C@@H](c2cccc(C(F)(F)F)c2)OC(=O)N1C(=O)NCc1cncc2ccccc12 [Tarocin A2, reference compound]
IC50 (TarO): 24.2 µM

Cc1onc(-c2ccccc2)c1C(=O)N[C@@H]1C(=O)N2[C@@H]1SC(C)(C)[C@@H]2C(=O)O [oxacillin, reference compound]
MIC (USA300 LAC [1]; Staphylococcus aureus, oxacillin used alone, USA300 LAC, read-out: MIC of β-lactam, Individual): 64 µg/mL | MIC of β-lactam, Individual (USA300 LAC [1]; oxacillin used alone, USA300 LAC): 64 µg/mL | MIC (USA400 MW2 [6]; Staphylococcus aureus, oxacillin used alone, USA400 MW2, read-out: MIC of β-lactam, Individual): 16 µg/mL | MIC of β-lactam, Individual (USA400 MW2 [6]; oxacillin used alone, USA400 MW2): 16 µg/mL

C[C@H]1[C@@H](c2cc(C(F)(F)F)cc(C(F)(F)F)c2)OC(=O)N1C(=O)CCc1cccc2c1OCCC2=O [Compound 14]
FICI (USA300 LAC [1]; [10]): < 0.08 | Sensitization fold (USA300 LAC [1]; [10]): 16 | Sensitization fold (USA300 LAC [1]; [11]): 8 | Minimum sensitization concentration (USA300 LAC [1]): 0.25 µg/mL | IC50 (TarO): 4.04 µM

tunicamycin [reference compound]
induction of vraXpro-lux expression (TarO; MRSA USA300 LAC strain, exponential growth phase): concentration-dependent manner | bacterial growth density (OD600) (TarO; post-exponential growth phase): effectively reduced the bacterial growth density

C[C@H]1[C@@H](c2cc(C(F)(F)F)cc(C(F)(F)F)c2)OC(=O)N1C(=O)CNc1cccc2ccccc12 [Compound 7]
IC50 (TarO): 7.19 µM

C[C@H]1[C@@H](c2cc(C(F)(F)F)cc(C(F)(F)F)c2)OC(=O)N1C(=O)N1CC(c2cccc3ccccc23)C1 [Compound 6]
TarO inhibitory activity (in words) (TarO): loss of activity

C[C@H]1[C@@H](c2cc(C(F)(F)F)cc(C(F)(F)F)c2)OC(=O)N1C(=O)CCN1CCOc2ccccc21 [Compound 11]
FICI (USA300 LAC [1]; [10]): < 0.07 | Sensitization fold (USA300 LAC [1]; [10]): 16 | Sensitization fold (USA300 LAC [1]; [11]): 4 | Minimum sensitization concentration (USA300 LAC [1]): 0.03 µg/mL | IC50 (TarO): 1.99 µM

C[C@H]1[C@@H](c2cc(C(F)(F)F)cc(C(F)(F)F)c2)OC(=O)N1C(=O)CCC1CCCCC1 [Compound 8]
TarO inhibitory activity (in words) (TarO): inactive

C[C@H]1[C@@H](c2cc(F)cc(C(F)(F)F)c2)OC(=O)N1C(=O)CCn1ccc(=O)c2ccccc21 [Compound 17c]
IC50 (TarO): 27.8 µM

C[C@H]1[C@@H](c2cc(C(F)(F)F)cc(C(F)(F)F)c2)OC(=O)N1C(=O)CCc1cccc2c1OCC/C2=N\O [Compound 23]
IC50 (TarO): 7.54 µM

COc1cc(C(F)(F)F)cc([C@H]2OC(=O)N(C(=O)CCn3ccc(=O)c4ccccc43)[C@H]2C)n1 [Compound 17b]
IC50 (TarO): 22.4 µM

C[C@H]1[C@@H](c2cc(C(F)(F)F)cc(C(F)(F)F)c2)OC(=O)N1C(=O)CCN1CCS(=O)(=O)c2ccccc21 [Compound 9]
TarO inhibitory activity (in words) (TarO): potent inhibition activity comparable to Tarocin A | IC50 (TarO): 6.32 µM
